Measurements published in patent US10544143B2, “4-azaindole compounds” (BRISTOL-MYERS SQUIBB COMPANY, priority 2017, dated 2020).
Like-named read-outs stand apart in the source and are kept apart here.

How the values were obtained:
human TLR9 = human TLR9 (Homo sapiens (Human), UniProt Q9NR96); test: TLR9 inhibition reporter assay (HEK-Blue SEAP); conditions: read-out: TLR9 IC50;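 further: SEAP driven by an IFN-β minimal promoter with NF-κB and AP-1 sites, read after 22 h, compounds dosed 0.05 nM–50 µM, inhibition scaled between agonist plus DMSO and reference-inhibitor wells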
human TLR7 = human TLR7 (Homo sapiens (Human), UniProt Q9NYK1); test: TLR7 inhibition reporter assay (HEK-Blue SEAP); assay type: cell-based
human TLR8 = human TLR8 (Homo sapiens (Human), UniProt Q9NR97); test: TLR8 inhibition reporter assay (HEK-Blue SEAP); conditions: read-out: TLR8 IC50;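 further: SEAP driven by IFN-β minimal promoter carrying NF-κB and AP-1 sites, compounds dosed 0.05 nM to 50 µM for 22 h, inhibition scaled between agonist-plus-DMSO and reference-inhibitor wells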
[1] = HEK-Blue cells overexpressing human TLR9, ODN2006 5 nM stimulation, SEAP reporter
[2] = HEK-Blue cells overexpressing human TLR7, gardiquimod 7.5 μM stimulation, SEAP reporter
[3] = HEK-Blue cells overexpressing human TLR8, R848 15.9 μM stimulation, SEAP reporter
[4] = HEK-Blue cells overexpressing human TLR9, SEAP reporter, ODN2006 5 nM
[5] = HEK-Blue cells overexpressing human TLR7, SEAP reporter, gardiquimod 7.5 μM
[6] = HEK-Blue cells overexpressing human TLR8, SEAP reporter, R848 15.9 μM
[7] = HEK-Blue human TLR9 cells, ODN2006 5 nM
[8] = HEK-Blue human TLR7 cells, gardiquimod 7.5 μM
[9] = HEK-Blue human TLR8 cells, R848 15.9 μM

Chain of human TLR7 (Q9NYK1 27-1049): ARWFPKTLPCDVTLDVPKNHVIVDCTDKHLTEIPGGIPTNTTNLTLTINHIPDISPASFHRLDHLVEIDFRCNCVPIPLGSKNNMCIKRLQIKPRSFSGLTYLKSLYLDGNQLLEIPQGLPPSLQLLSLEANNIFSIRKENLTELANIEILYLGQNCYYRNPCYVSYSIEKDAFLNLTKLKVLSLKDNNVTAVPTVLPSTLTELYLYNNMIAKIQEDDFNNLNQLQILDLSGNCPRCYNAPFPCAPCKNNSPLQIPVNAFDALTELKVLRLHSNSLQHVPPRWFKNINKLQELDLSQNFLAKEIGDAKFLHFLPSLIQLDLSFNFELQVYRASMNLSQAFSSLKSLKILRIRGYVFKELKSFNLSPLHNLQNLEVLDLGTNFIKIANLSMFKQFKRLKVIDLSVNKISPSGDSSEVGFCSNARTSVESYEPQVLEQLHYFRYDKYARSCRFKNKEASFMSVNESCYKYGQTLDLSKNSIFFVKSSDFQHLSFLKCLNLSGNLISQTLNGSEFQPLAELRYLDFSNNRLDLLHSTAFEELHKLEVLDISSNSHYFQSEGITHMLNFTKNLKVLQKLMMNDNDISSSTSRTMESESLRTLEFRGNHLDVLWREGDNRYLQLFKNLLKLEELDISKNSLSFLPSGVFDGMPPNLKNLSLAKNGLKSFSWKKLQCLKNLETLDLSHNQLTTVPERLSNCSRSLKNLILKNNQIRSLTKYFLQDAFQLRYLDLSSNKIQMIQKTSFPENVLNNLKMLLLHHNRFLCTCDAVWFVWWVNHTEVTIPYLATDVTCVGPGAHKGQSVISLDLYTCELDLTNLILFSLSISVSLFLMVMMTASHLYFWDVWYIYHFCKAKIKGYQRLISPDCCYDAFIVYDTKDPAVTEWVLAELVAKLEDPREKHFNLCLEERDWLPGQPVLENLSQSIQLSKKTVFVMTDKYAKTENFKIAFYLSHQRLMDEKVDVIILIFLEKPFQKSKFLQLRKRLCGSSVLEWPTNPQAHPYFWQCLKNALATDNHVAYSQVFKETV
Chain of human TLR8 (Q9NR97 27-1041): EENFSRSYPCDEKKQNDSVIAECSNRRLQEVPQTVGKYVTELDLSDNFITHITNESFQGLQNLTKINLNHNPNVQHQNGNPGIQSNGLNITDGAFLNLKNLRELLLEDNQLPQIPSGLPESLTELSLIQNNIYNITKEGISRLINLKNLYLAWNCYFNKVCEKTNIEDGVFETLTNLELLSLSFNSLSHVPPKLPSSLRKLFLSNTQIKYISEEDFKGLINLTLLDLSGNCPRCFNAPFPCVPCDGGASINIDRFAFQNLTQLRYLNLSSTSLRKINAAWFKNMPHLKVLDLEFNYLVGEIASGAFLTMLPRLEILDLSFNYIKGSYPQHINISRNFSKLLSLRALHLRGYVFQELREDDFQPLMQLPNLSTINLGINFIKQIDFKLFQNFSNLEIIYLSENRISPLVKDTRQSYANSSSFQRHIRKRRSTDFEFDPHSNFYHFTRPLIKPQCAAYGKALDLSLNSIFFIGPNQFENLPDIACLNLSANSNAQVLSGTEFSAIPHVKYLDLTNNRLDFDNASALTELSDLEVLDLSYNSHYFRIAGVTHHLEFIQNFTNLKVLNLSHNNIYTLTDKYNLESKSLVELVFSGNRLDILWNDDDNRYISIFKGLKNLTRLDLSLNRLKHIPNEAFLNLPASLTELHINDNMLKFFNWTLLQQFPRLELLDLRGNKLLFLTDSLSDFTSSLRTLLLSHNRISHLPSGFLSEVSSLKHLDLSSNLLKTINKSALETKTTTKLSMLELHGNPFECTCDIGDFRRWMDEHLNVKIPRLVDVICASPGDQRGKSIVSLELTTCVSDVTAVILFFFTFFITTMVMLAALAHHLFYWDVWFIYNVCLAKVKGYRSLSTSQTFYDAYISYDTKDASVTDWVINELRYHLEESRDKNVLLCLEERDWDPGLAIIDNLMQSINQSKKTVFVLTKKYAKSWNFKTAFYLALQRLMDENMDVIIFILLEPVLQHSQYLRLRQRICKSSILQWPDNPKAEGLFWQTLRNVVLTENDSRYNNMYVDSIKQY
Chain of human TLR9 (Q9NR96 26-1032): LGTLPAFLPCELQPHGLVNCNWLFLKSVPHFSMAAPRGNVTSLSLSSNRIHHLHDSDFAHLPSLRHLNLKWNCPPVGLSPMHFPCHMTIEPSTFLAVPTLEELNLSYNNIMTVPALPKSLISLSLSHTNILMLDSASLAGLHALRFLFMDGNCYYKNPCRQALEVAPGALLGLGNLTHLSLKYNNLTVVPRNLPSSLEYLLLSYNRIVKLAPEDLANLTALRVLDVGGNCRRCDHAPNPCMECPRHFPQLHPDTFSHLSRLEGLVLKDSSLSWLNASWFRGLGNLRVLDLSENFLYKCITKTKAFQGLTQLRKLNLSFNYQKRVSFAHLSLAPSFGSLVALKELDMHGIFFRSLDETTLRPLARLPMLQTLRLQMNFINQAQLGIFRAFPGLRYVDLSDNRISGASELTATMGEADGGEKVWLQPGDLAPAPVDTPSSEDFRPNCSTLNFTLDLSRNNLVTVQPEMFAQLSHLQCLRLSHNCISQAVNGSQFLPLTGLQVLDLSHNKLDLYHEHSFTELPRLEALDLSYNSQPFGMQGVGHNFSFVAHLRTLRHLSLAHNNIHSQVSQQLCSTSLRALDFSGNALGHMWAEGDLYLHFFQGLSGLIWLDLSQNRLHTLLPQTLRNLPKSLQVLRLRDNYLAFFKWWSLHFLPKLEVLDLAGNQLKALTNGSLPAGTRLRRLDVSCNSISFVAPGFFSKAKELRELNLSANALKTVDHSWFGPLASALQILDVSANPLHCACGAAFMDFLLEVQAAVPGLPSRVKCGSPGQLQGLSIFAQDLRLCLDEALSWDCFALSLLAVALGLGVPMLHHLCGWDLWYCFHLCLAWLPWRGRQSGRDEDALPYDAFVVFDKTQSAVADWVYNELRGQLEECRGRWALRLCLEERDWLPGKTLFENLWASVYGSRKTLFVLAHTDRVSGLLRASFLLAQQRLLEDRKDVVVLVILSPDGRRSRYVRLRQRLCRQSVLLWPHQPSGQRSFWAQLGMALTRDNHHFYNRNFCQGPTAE

Row | IC50 (human TLR9; [1]) | IC50 (human TLR7; [2]) | IC50 (human TLR8; [3]) | IC50 (human TLR9; [4]) | IC50 (human TLR7; [5]) | IC50 (human TLR8; [6]) | IC50 (human TLR9; [7]) | IC50 (human TLR7; [8]) | IC50 (human TLR8; [9]) | Compound
1 |  |  |  |  |  |  | 23700 nM | 11 nM | 22 nM | Cc1c(-c2[nH]c3ccc(N4CC5(C4)CN(C4COC4)C5)nc3c2C(C)C)cn2ncnc2c1C [Example 1011]
2 |  |  |  |  |  |  | 6270 nM | 2.2 nM | 2.3 nM | Cc1c(-c2[nH]c3ccc(N4C[C@H]5CC[C@@H]4CN5)nc3c2C(C)C)cn2ncnc2c1C [Example 980]
3 |  |  |  |  |  |  | 4640 nM | 0.56 nM | 3.5 nM | Cc1c(-c2[nH]c3ccc(N4C[C@H](C)N(C(=O)CN5CCCC5)C[C@H]4C)nc3c2C(C)C)cn2ncnc2c1C [Example 936]
4 |  |  |  |  |  |  | 10500 nM | 7.5 nM | 2.1 nM | Cc1c(-c2[nH]c3ccc(N4CC(NC(C)C)C4)nc3c2C(C)C)cn2ncnc2c1C [Example 999]
5 |  |  |  | 18500 nM | 6.5 nM | 46 nM |  |  |  | COc1cc(-c2[nH]c3ccc(C4CCC(N(CC(=O)N(C)C)CC(=O)N(C)C)C4)nc3c2C(C)C)cn2ncnc12 (stereo not drawn) [Example 722]
6 |  |  |  |  |  |  | 2420 nM | 0.49 nM | 0.85 nM | Cc1c(-c2[nH]c3ccc(C4CCC(N5CC(C)(O)C5)CC4)nc3c2C(C)C)cn2ncnc2c1C (stereo not drawn) [Example 1041]
7 |  |  |  |  |  |  | 7020 nM | 0.56 nM | 0.48 nM | CNC1CCN(c2ccc3[nH]c(-c4cn5ncnc5c(C)c4C)c(C(C)C)c3n2)CC1 [Example 995]
8 |  |  |  |  |  |  | 8950 nM | 0.19 nM | 1.4 nM | Cc1c(-c2[nH]c3ccc(N4CCN(C(=O)CN(C)C)C[C@H]4C)nc3c2C(C)C)cn2ncnc2c1C [Example 808]

More lines, now with the values behind:

Row | Compound | IC50 (human TLR9; [1]) | IC50 (human TLR7; [2]) | IC50 (human TLR8; [3]) | IC50 (human TLR9; [4]) | IC50 (human TLR7; [5]) | IC50 (human TLR8; [6]) | IC50 (human TLR9; [7]) | IC50 (human TLR7; [8]) | IC50 (human TLR8; [9])
9 | Cc1c(-c2[nH]c3ccc(C4CCC(N(C)CCC#N)CC4)nc3c2C(C)C)cn2ncnc2c1C (stereo not drawn) [Example 366] | 4690 nM | 5.3 nM | 15 nM |  |  |  |  |  | 
10 | CNC(=O)CN1CCC(c2ccc3[nH]c(-c4cc(C)c5ncnn5c4)c(C(C)C)c3n2)CC1 [Example 532] |  |  |  | 3590 nM | 0.58 nM | 4.4 nM |  |  | 
11 | Cc1c(-c2[nH]c3ccc(C4CC(N(C)CCS(C)(=O)=O)C4)nc3c2C(C)C)cn2ncnc2c1C (stereo not drawn) [Example 636] |  |  |  | 21600 nM | 46 nM | 28 nM |  |  | 
12 | Cc1c(-c2[nH]c3ccc(C4CCNCC4)nc3c2C(C)C)cn(C)c(=O)c1C [Example 519] |  |  |  | 362 nM | 8.3 nM | 12 nM |  |  | 
13 | COCc1cc(-c2[nH]c3ccc(C4CCC(NC5COC5)CC4)nc3c2C(C)C)cn2ncnc12 (stereo not drawn) [Example 214] | 833 nM | 3.9 nM | 6.3 nM |  |  |  |  |  | 
14 | COc1cc(-c2[nH]c3ccc(C4CCC(NC(C)C)CC4)nc3c2C(C)C)cn2ncnc12 (stereo not drawn) [Example 167] | 156 nM | 0.43 nM | 1.7 nM |  |  |  |  |  | 
15 | Cc1c(-c2[nH]c3ccc(C4CCC(NC5CCOCC5)CC4)nc3c2C(C)C)cn2ncnc2c1C (stereo not drawn) [Example 451] |  |  |  | 1040 nM | 0.48 nM | 0.63 nM |  |  | 
16 | Cc1c(-c2[nH]c3ccc(N4CC5(CCN(CC(=O)N(C)C)CC5)C4)nc3c2C(C)C)cn2ncnc2c1C [Example 44] | 3370 nM | 12 nM | 15 nM |  |  |  |  |  | 
17 | Cc1cc(-c2[nH]c3ccc(C4CCN(C5COC5)CC4)nc3c2C(C)C)cn2ncnc12 [Example 534] |  |  |  | 4280 nM | 1.2 nM | 8 nM |  |  | 
18 | Cc1c(-c2[nH]c3ccc(N4CC(N(C)C(=O)CN(C)C)C4)nc3c2C(C)C)cn2ncnc2c1C [Example 25] | 11700 nM | 181 nM | 117 nM |  |  |  |  |  | 
19 | COc1cc(-c2[nH]c3ccc(C4CN(CC(N)=O)C4)nc3c2C(C)C)cn2ncnc12 [Example 645] |  |  |  | 4090 nM | 21 nM | 303 nM |  |  | 
20 | Cc1c(-c2[nH]c3ccc(C4CCC(N5CCC[C@H]5CO)CC4)nc3c2C(C)C)cn2ncnc2c1C (stereo partly drawn) [Example 393] | 360 nM | 0.47 nM | 1.3 nM |  |  |  |  |  | 
21 | COc1cc(-c2[nH]c3ccc(N4CCN(CC#N)CC4)nc3c2C(C)C)cn2ncnc12 [Example 94] | 9350 nM | 1 nM | 1.4 nM |  |  |  |  |  | 
22 | CCCN1CCC(Oc2ccc3[nH]c(-c4cc(OC)c5ncnn5c4)c(C(C)C)c3n2)CC1 [Example 593, 6-(3-isopropyl-5-((1-propylpiperidin-4-yl)oxy)-1H-pyrrolo[3,2-b]pyridin-2-yl)-8-methoxy-[1,2,4]triazolo[1,5-a]pyridine] |  |  |  | 974 nM | 1.4 nM | 2.6 nM |  |  | 
23 | COCc1cc(-c2[nH]c3ccc(C4CCC(NC5COC5)CC4)nc3c2C(C)C)cn2ncnc12 (stereo not drawn) [Example 229] | 1710 nM | 19 nM | 18 nM |  |  |  |  |  | 
